Patent US20220378791A1, “JAK1 INHIBITORS FOR THE TREATMENT OF MYELODYSPLASTIC SYNDROMES” (Incyte Corporation, priority 2014, published 2022)

Columns and labels:
[1] = target: T1, human JAK2 (a.a. 828-1132) (Homo sapiens, UniProt O60674); experiment: In vitro JAK kinase assay (HTRF), JAK2; format: biochemical; conditions: IC50 ratio, selectivity for JAK1 over JAK2, 1 mM ATP
T1 construct: JAK2 (a.a. 828-1132); His tag (N); made in house; host or cells: insect cells (baculovirus)
Experimental: (§1) Compounds herein were tested for inhibitory activity of JAK targets according to the following in vitro assay described in Park et al., Analytical Biochemistry 1999, 269, 94-104. The catalytic domains of human JAK1 (a.a. 837-1142), JAK2 (a.a. 828-1132) and JAK3 (a.a. 781-1124) with an N-terminal His tag were expressed using baculovirus in insect cells and purified. The catalytic activity of JAK1, JAK2 or JAK3 was assayed by measuring the phosphorylation of a biotinylated peptide. The phosphorylated peptide was detected by homogenous time resolved fluorescence (HTRF). […] Reactions were carried out at room temperature for 1 hour and then stopped with 20 μL 45 mM EDTA, 300 nM SA-APC, 6 nM Eu-Py20 in assay buffer (Perkin Elmer, Boston, Mass.). Binding to the Europium labeled antibody took place for 40 minutes and HTRF signal was measured on a Fusion plate reader (Perkin Elmer, Boston, Mass.). See Table 2 for data for compounds of the examples as tested by the assay of Example A at 1 mM ATP.

[2] = target: T2, human JAK1 (a.a. 837-1142) (Homo sapiens, UniProt P23458); experiment: In vitro JAK kinase assay (HTRF), JAK1; format: biochemical; conditions: 1 mM ATP
T2 construct: human JAK1 (a.a. 837-1142); His tag (N); made in house; host or cells: insect cells (baculovirus)
T2 sequence (P23458 849-1154): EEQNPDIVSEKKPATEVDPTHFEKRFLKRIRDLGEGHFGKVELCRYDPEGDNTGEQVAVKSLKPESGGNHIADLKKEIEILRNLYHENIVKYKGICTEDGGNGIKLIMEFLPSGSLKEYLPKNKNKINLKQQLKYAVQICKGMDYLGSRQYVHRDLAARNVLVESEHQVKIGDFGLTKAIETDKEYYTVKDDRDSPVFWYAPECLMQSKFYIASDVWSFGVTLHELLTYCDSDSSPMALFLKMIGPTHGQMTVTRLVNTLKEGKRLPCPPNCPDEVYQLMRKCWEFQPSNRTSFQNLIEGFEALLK
Experimental: as §1, with “Mass.).” for “Mass.). See Table 2 for data for compounds of the examples as tested by the assay of Example A at 1 mM ATP.”

T1 sequence (O60674 828-1132): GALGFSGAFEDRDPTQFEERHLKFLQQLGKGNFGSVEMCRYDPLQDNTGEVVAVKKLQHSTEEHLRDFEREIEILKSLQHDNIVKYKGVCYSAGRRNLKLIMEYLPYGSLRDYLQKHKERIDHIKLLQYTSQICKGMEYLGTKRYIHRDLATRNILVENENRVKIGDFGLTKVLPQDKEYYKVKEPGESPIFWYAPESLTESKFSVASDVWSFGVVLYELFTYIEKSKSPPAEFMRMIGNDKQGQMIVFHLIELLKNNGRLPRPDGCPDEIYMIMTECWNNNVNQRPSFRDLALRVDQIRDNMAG

SMILES	JAK2/JAK1 [1]	IC50 [2] [nM]
N#CC[C@]1(n2cc(-c3ncnc4[nH]ccc34)cn2)C[C@H](N2CCC(Oc3cc(CN4CCC[C@H]4CO)cc(C(F)(F)F)n3)CC2)C1 [Example 10, {trans-3-(4-{[4-{[(2S)-2-(hydroxymethyl)pyrrolidin-1-yl]methyl}-6-(trifluoromethyl)pyridin-2-yl]oxy}piperidin-1-yl)-1-[4-(7H-pyrrolo[2,3-d]pyrimidin-4-yl)-1H-pyrazol-1-yl]cyclobutyl}acetonitrile]	>10	< 10
C[C@@H](CO)NCc1cc(OC2CCN([C@H]3C[C@](CC#N)(n4cc(-c5ncnc6[nH]ccc56)cn4)C3)CC2)nc(C(F)(F)F)c1 [Example 21, {trans-3-(4-{[4-({[(1S)-2-hydroxy-1-methylethyl]amino}methyl)-6-(trifluoromethyl)pyridin-2-yl]oxy}piperidin-1-yl)-1-[4-(7H-pyrrolo[2,3-d]pyrimidin-4-yl)-1H-pyrazol-1-yl]cyclobutyl}acetonitrile]	>10	< 10
N#CCC1(n2cc(-c3ncnc4[nH]ccc34)cn2)CN([C@H]2CC[C@@H](Oc3cc(CN4CC[C@@H](O)C4)cc(C(F)(F)F)n3)CC2)C1 [Example 19, {1-(cis-4-{[4-{[(3R)-3-hydroxypyrrolidin-1-yl]methyl}-6-(trifluoromethyl)pyridin-2-yl]oxy}cyclohexyl)-3-[4-(7H-pyrrolo[2,3-d]pyrimidin-4-yl)-1H-pyrazol-1-yl]azetidin-3-yl}acetonitrile]	>10	< 10
C[C@H](NC(=O)c1cc(F)c(N2CC(CC#N)(n3cc(-c4ncnc5[nH]ccc45)cn3)C2)cc1F)C(F)(F)F [Example 14, 4-{3-(Cyanomethyl)-3-[4-(7H-pyrrolo[2,3-d]pyrimidin-4-yl)-1H-pyrazol-1-yl]azetidin-1-yl}-2,5-difluoro-N-[(1S)-2,2,2-trifluoro-1-methylethyl]benzamide]	>10	< 10
N#CCC(CN1CCN(C(=O)c2ccc(C#N)cc2F)CC1)n1cc(-c2ncnc3[nH]ccc23)cn1 (single isomer, unassigned) [Example 3, 4-[(4-{3-cyano-2-[4-(7H-pyrrolo[2,3-d]pyrimidin-4-yl)-1H-pyrazol-1-yl]propyl}piperazin-1-yl)carbonyl]-3-fluorobenzonitrile]	>10	< 10
N#CC[C@]1(n2cc(-c3ncnc4[nH]ccc34)cn2)C[C@H](N2CCN(C(=O)c3ccnc(C(F)(F)F)n3)CC2)C1 [Example 8, [trans-1-[4-(7H-pyrrolo[2,3-d]pyrimidin-4-yl)-1H-pyrazol-1-yl]-3-(4-{[2-(trifluoromethyl)pyrimidin-4-yl]carbonyl}piperazin-1-yl)cyclobutyl]acetonitrile]	>10	< 10
N#CC[C@]1(n2cc(-c3ncnc4[nH]ccc34)cn2)C[C@H](N2CCC(Oc3cc(CN4CC(O)C4)cc(C(F)(F)F)n3)CC2)C1 [Example 9, {trans-3-(4-{[4-[(3-hydroxyazetidin-1-yl)methyl]-6-(trifluoromethyl)pyridin-2-yl]oxy}piperidin-1-yl)-1-[4-(7H-pyrrolo[2,3-d]pyrimidin-4-yl)-1H-pyrazol-1-yl]cyclobutyl}acetonitrile]	>10	< 10
N#CCC1(n2cc(-c3ncnc4[nH]ccc34)cn2)CN([C@H]2CC[C@@H](Oc3cc(CN4CC[C@H](O)C4)cc(C(F)(F)F)n3)CC2)C1 [Example 20, {1-(cis-4-{[4-{[(3S)-3-hydroxypyrrolidin-1-yl]methyl}-6-(trifluoromethyl)pyridin-2-yl]oxy}cyclohexyl)-3-[4-(7H-pyrrolo[2,3-d]pyrimidin-4-yl)-1H-pyrazol-1-yl]azetidin-3-yl}acetonitrile]	>10	< 10

Other lines, results leading:

JAK2/JAK1 [1]	IC50 [2] [nM]	SMILES
>10	< 10	CCNCc1cc(O[C@H]2CC[C@@H](N3CC(CC#N)(n4cc(-c5ncnc6[nH]ccc56)cn4)C3)CC2)nc(C(F)(F)F)c1 [Example 17, {1-(cis-4-{[4-[(ethylamino)methyl]-6-(trifluoromethyl)pyridin-2-yl]oxy}cyclohexyl)-3-[4-(7H-pyrrolo[2,3-d]pyrimidin-4-yl)-1H-pyrazol-1-yl]azetidin-3-yl}acetonitrile]
>10	< 10	N#CC[C@]1(n2cc(-c3ncnc4[nH]ccc34)cn2)C[C@H](N2CCC(Oc3cc(CN4CCC[C@@H]4CO)cc(C(F)(F)F)n3)CC2)C1 [Example 11, {trans-3-(4-{[4-{[(2R)-2-(hydroxymethyl)pyrrolidin-1-yl]methyl}-6-(trifluoromethyl)pyridin-2-yl]oxy}piperidin-1-yl)-1-[4-(7H-pyrrolo[2,3-d]pyrimidin-4-yl)-1H-pyrazol-1-yl]cyclobutyl}acetonitrile]
>10	< 10	C[C@H](O)CNCc1cc(OC2CCN([C@H]3C[C@](CC#N)(n4cc(-c5ncnc6[nH]ccc56)cn4)C3)CC2)nc(C(F)(F)F)c1 [Example 23, {trans-3-(4-{[4-({[(2S)-2-hydroxypropyl]amino}methyl)-6-(trifluoromethyl)pyridin-2-yl]oxy}piperidin-1-yl)-1-[4-(7H-pyrrolo[2,3-d]pyrimidin-4-yl)-1H-pyrazol-1-yl]cyclobutyl}acetonitrile]
>10	< 10	N#CCC(CN1CCN(C(=O)c2ccc(C#N)cc2F)CC1)n1ccc(-c2ncnc3[nH]ccc23)c1 (single isomer, unassigned) [Example 4, 4-[(4-{3-cyano-2-[3-(7H-pyrrolo[2,3-d]pyrimidin-4-yl)-1H-pyrrol-1-yl]propyl}piperazin-1-yl)carbonyl]-3-fluorobenzonitrile]
>10	< 10	CC(C)(O)c1cc(O[C@H]2CC[C@@H](N3CC(CC#N)(n4cc(-c5ncnc6[nH]ccc56)cn4)C3)CC2)nc(C(F)(F)F)c1 [Example 18, {1-(cis-4-{[4-(1-hydroxy-1-methylethyl)-6-(trifluoromethyl)pyridin-2-yl]oxy}cyclohexyl)-3-[4-(7H-pyrrolo[2,3-d]pyrimidin-4-yl)-1H-pyrazol-1-yl]azetidin-3-yl}acetonitrile]
>10	< 10	N#CC[C@]1(n2cc(-c3ncnc4[nH]ccc34)cn2)C[C@H](N2CCC(Oc3cc(CCO)cc(C(F)(F)F)n3)CC2)C1 [Example 24, {trans-3-(4-{[4-(2-hydroxyethyl)-6-(trifluoromethyl)pyridin-2-yl]oxy}piperidin-1-yl)-1-[4-(7H-pyrrolo[2,3-d]pyrimidin-4-yl)-1H-pyrazol-1-yl]cyclobutyl}acetonitrile]
>10	< 10	C[C@@H](O)CNCc1cc(OC2CCN([C@H]3C[C@](CC#N)(n4cc(-c5ncnc6[nH]ccc56)cn4)C3)CC2)nc(C(F)(F)F)c1 [Example 22, {trans-3-(4-{[4-({[(2R)-2-hydroxypropyl]amino}methyl)-6-(trifluoromethyl)pyridin-2-yl]oxy}piperidin-1-yl)-1-[4-(7H-pyrrolo[2,3-d]pyrimidin-4-yl)-1H-pyrazol-1-yl]cyclobutyl}acetonitrile]
>10	< 10	N#CCC1(n2cc(-c3ncnc4[nH]ccc34)cn2)CN(C2CCN(C(=O)c3ccnc(C(F)(F)F)n3)CC2)C1 [Example 7, [3-[4-(7H-pyrrolo[2,3-d]pyrimidin-4-yl)-1H-pyrazol-1-yl]-1-(1-{[2-(trifluoromethyl)pyrimidin-4-yl]carbonyl}piperidin-4-yl)azetidin-3-yl]acetonitrile]
